In brackets after ≈: the same amount, converted by molar mass.
What was measured:
Assay type in all cases: cell-based
[1] = test system: E. coli strain DPD2433 (yhcS−); assay: pHBA zone of growth inhibition on solidified Vogel-Bonner medium; settings: sodium salt of pHBA 80 μmoles/disk, Vogel-Bonner with glucose
Experimental: (§4) This was tested by measuring the size of the zone of growth inhibition and scoring the degree of growth within the zones resulting from the sodium salt of pHBA (80 μmoles/disk) on solidified Vogel-Bonner medium with glucose as the carbon source (Table 5).

[2] = test system: E. coli strain MG1655 (+); assay: Growth in LB medium in the presence of pHBA, scored visually; also: key: ++++ indicates full turbidity; +++ indicates moderate, but visually less than full turbidity; + indicates very slight turbidity; − indicates no turbidity
Source text: (§1) Strain DPD1818 carries a to/C::miniTn10 mutation in the MG1655 background. It was constructed by transduction of E. coli MG1655 using P1clr100 Cm phage grown on E. coli strain DE112 (Van Dyk et al. Appl. Environ. Microbiol. 60:1414-1420 (1994)), which carries a tolC::miniTn10 mutation, and selection for tetracycline resistance. Strain DPD2444, described above, carries a yhcP::TN<Kan> mutation. Strain DP2446 carries both the tolC::miniTn10 and yhcP::TN<Kan>. This strain was constructed using by P1clr100Cm mediated transduction of DE112 with phage grown on strain DPD2443 and selection for kanamycin resistance. Each of these mutant strains was grown overnight in LB medium at 37° C. […] The final volume in the wells of a 96-well microplate was 100 μl and the final dilution of the inoculum was 1 to 1000. This microplate was covered and incubated at 37° C. for 7 hours and then incubated at room temperature for 3 days. The growth in each well was then scored visually.

[3] = test system: E. coli strain DPD2444 (yhcP); assay: as above
Source text: as §1

[4] = test system: E. coli strain DPD2446 (tolC yhcP); assay: as above; also: key: ++++ indicates full turbidity; +++ indicates moderate, but visually less than full turbidity; + indicates very slight turbidity; − indicates no turbidity
Source text: as §1

[5] = test system: E. coli strain DPD1818 (tolC); assay: as above; also: key: ++++ indicates full turbidity; +++ indicates moderate, but visually less than full turbidity; + indicates very slight turbidity; − indicates no turbidity
Source text: as §1

[6] = test system: E. coli strain DPD2463 (DPD2444 yhcP− with pDEW659 yhcP); assay: pHBA zone of growth inhibition, plasmid-carrying strains (Table 9)
Source text: (§2) Plasmids pDEW668, pDEW673, pDEW675, and a control plasmid, pTrcHis2TOPO®/lacZ (Invitrogen), were moved by transformation to E. coli strain DPD2433, selecting for Ampicillin resistance, to generate strains DPD3317, DPD2455, DPD2457, and DPD3316, respectively.
(§3) The YhcP-Left primer was designed to contain a HindIII site and the YhcP-Right primer was designed to contain an EcoRI site for directional cloning of the resultant PCR product. […] The product of the PCR reaction was digested with restriction enzymes EcoRI and HindIII. The restriction digestion also contained pKK223-3 at an approximate molar ratio of 2:1 (insert:vector). Following incubation at 37° C. for 1.5 hours, the enzymes were inactivated by incubation at 65° C. for 20 minutes. The enzymes were subsequently removed by use a Qiaquick PCR purification kit (Qiagen) according to the vendor's instructions. The purified restriction products were ligated using T4 DNA ligase at 16° C. overnight. Following ligation, PstI and SmaI digestions were used to linearize the vector without insert DNA. The DNA from this selection digestion was used for transformation of E. coli strain JM105 (Amersham Pharmacia Biotech Inc., Piscataway, N.J.) using selection for Ampicillin resistance. Plasmid DNA from individual transformants was digested with EcoRI and HindIII. […] This plasmid and others were placed in various host strains by transformation and selection for Ampicillin resistance.

[7] = test system: E. coli strain DPD2467 (DPD2433 yhcS− with pDEW659 yhcP); assay: as above
Source text: as §2, §3

[8] = test system: E. coli strain DPD2466 (DPD2433 yhcS− with pKK223-3 control plasmid); assay: as above
Source text: as §2, §3

[9] = test system: E. coli strain DPD2464 (DPD2444 yhcP− with pDEW673 yhcQP); assay: as above
Source text: as §2, §3

[10] = test system: E. coli strain DPD2462 (DPD2444 yhcP− with pKK223-3 control plasmid); assay: as above
Source text: as §2, §3

[11] = test system: E. coli strain DPD2465 (DPD2444 yhcP− with pDEW675 yhcRQ); assay: as above
Source text: as §2, §3

[12] = test system: E. coli strain DPD2459 (MG1655 + with pKK223-3 control plasmid); assay: as above
Source text: as §2, §3

E. coli strain MG1655 = assay: pHBA zone of growth inhibition on solidified Vogel-Bonner medium; settings: sodium salt of pHBA 80 μmoles/disk, Vogel-Bonner with glucose
Experimental: as §4

[13] = test system: E. coli strain DPD2444 (yhcP::TN<Kan>); assay: MIC, 2-fold dilutions, Vogel-Bonner medium with 0.4% glucose; settings: Escherichia coli, read-out: MIC for pHBA
Source text: The yhcP::TN<Kan> was introduced into E. coli strain MG1655 (obtained from Prof. Douglas Berg, Washington University School of Medicine, St. Louis, […].) by P1clr100 Cm mediated transduction to kanamycin resistance using phage lysates of E. coli strain DPD2443. One of the resultant kanamycin resistant transductants was named DPD2444.
For Growth in LB medium for 3 days at room temperature with pHBA in this document: key: ++++ indicates full turbidity; +++ indicates moderate, but visually less than full turbidity; + indicates very slight turbidity; − indicates no turbidity.

For `O=C(O)c1ccc(O)cc1` [pHBA, para-hydroxybenzoic acid], which “degree of growth within the pHBA zone of growth inhibition” value [1] is on record?
Its value is “clear”.

And the “pHBA zone of growth inhibition, mm diameter” value ([1]; average of two experiments)?
Its value is 20.2 mm.

And the “Growth in LB medium for 3 days at room temperature with pHBA” value (“Growth in LB medium for 3 days” for short) ([2]; 25 mM pHBA sodium salt)?
Its value is “++++”.

What about the “Growth in LB medium for 3 days” value ([2]; 50 mM pHBA sodium salt) of the same compound?
Its value is “++++”.

What about the “Growth in LB medium for 3 days” value ([2]; 100 mM pHBA sodium salt) of the same compound?
Its value is “+++”.

What about the “Growth in LB medium for 3 days” value ([2]; 200 mM pHBA sodium salt) of the same compound?
The value was “−”.

And the “Growth in LB medium for 3 days” value ([3]; 25 mM pHBA sodium salt)?
The value was “++++”.

What about the “Growth in LB medium for 3 days” value ([3]; 50 mM pHBA sodium salt) of the same compound?
The value was “++++”.

And the “Growth in LB medium for 3 days” value ([3]; 100 mM pHBA sodium salt)?
Its value is “−”.

What about the “Growth in LB medium for 3 days” value ([3]; 200 mM pHBA sodium salt) of the same compound?
The value was “−”.

What about the “Growth in LB medium for 3 days” value ([4]; 25 mM pHBA sodium salt) of the same compound?
The value was “++++”.

What about the “Growth in LB medium for 3 days” value ([4]; 50 mM pHBA sodium salt) of the same compound?
The value was “+”.

And the “Growth in LB medium for 3 days” value ([4]; 100 mM pHBA sodium salt)?
Its value is “−”.

What about the “Growth in LB medium for 3 days” value ([4]; 200 mM pHBA sodium salt) of the same compound?
Its value is “−”.

And the “Growth in LB medium for 3 days” value ([5]; 25 mM pHBA sodium salt)?
Its value is “++++”.

And the “Growth in LB medium for 3 days” value ([5]; 50 mM pHBA sodium salt)?
The value was “++++”.

What about the “Growth in LB medium for 3 days” value ([5]; 100 mM pHBA sodium salt) of the same compound?
The value was “+”.

What about the “Growth in LB medium for 3 days” value ([5]; 200 mM pHBA sodium salt) of the same compound?
Its value is “−”.

What about the “clarity of pHBA zone of growth inhibition” value [6] of the same compound?
Its value is “turbid”.

And the “pHBA zone of growth inhibition, mm diameter” value ([6]; tested as for Table 8)?
Its value is 10.5 mm.

What about the “clarity of pHBA zone of growth inhibition” value [7] of the same compound?
The value was “clear”.

What about the “pHBA zone of growth inhibition, mm diameter” value ([7]; tested as for Table 8) of the same compound?
Its value is 18.8 mm.

What about the “clarity of pHBA zone of growth inhibition” value [8] of the same compound?
Its value is “clear”.

What about the “pHBA zone of growth inhibition, mm diameter” value ([8]; tested as for Table 8) of the same compound?
The value was 19.2 mm.

What about the “clarity of pHBA zone of growth inhibition” value [9] of the same compound?
Its value is “turbid”.

And the “pHBA zone of growth inhibition, mm diameter” value ([9]; tested as for Table 8)?
The value was 9.8 mm.

And the “clarity of pHBA zone of growth inhibition” value [10]?
Its value is “clear”.

And the “pHBA zone of growth inhibition, mm diameter” value ([10]; tested as for Table 8)?
The value was 22.8 mm.

And the “clarity of pHBA zone of growth inhibition” value [11]?
The value was “clear”.

And the “pHBA zone of growth inhibition, mm diameter” value ([11]; tested as for Table 8)?
The value was 21.8 mm.

And the “clarity of pHBA zone of growth inhibition” value [12]?
The value was “turbid”.

And the “pHBA zone of growth inhibition, mm diameter” value ([12]; tested as for Table 8)?
Its value is 10.0 mm.

And the “degree of growth within the pHBA zone of growth inhibition” value (E. coli strain MG1655)?
Its value is “turbid”.

And the “pHBA zone of growth inhibition, mm diameter” value (E. coli strain MG1655; average of two experiments)?
The value was 9.5 mm.

And the MIC [13]?
The MIC was 25 mM (≈ 3450 µg/mL).
